From PMC3448953 (2012)
Structures can show the parent of a compound that is named as a salt.

Target: BioA (Mycobacterium tuberculosis, UniProt P9WQ81)
Assay: continuous coupled fluorescence enzyme assay
Assay type: biochemical

BioA, sequence (P9WQ81 whole entry): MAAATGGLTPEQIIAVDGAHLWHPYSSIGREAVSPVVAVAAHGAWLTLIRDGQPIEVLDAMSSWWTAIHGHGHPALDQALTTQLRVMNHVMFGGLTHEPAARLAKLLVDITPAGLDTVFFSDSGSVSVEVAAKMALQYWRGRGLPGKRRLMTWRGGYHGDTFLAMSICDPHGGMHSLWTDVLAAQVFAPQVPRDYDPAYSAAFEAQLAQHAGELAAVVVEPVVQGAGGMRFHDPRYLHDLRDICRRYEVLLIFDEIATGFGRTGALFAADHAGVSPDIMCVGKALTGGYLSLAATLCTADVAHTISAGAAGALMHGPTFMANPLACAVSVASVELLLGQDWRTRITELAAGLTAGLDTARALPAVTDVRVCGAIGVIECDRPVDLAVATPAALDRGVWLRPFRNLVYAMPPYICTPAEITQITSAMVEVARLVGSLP

N[C@H]1C=C[C@@H](CCCO)C1 (racemic) [M-2, (±)-cis-3-(-4-Aminocyclopent-2-enyl)propan-1-ol hydrochloride salt]
IC50: 57 ± 1.9 µM
